Measured values as given in ChEMBL document CHEMBL1201862, “PubChem BioAssay data set” (2004).
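All cell lines were grown in 96-well plates and treated with compound for 48 hours. GI50 is the concentration that inhibits growth by half.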 Active and inactive are the calls of the source. Rule as the data show it: active = GI50 up to about 1.1 µM and inactive = higher.

Assays:
Assay in all cases: NCI anticancer screen, dose series, 48 h
[1] = system: KM12
[2] = system: KM-20L2
[3] = system: RXF 393
[4] = system: TK-10
[5] = system: K562
[6] = system: LXFL 529
[7] = system: NCI-H460
[8] = system: SK-OV-3
[9] = system: UACC-257
[10] = system: CAKI-1
[11] = system: A549
[12] = system: SNB-75
[13] = system: ACHN
[14] = system: Malme-3M
[15] = system: SK-MEL-5
[16] = system: IGROV-1
[17] = system: SK-MEL-28
[18] = system: HCT-15
[19] = system: U-251
[20] = system: OVCAR-5
[21] = system: OVCAR-8
[22] = system: COLO 205
[23] = system: NCI-H23
[24] = system: M19-MEL
[25] = system: HT-29
[26] = system: HOP-92
[27] = system: MOLT-4
[28] = system: RPMI-8226
[29] = system: SK-MEL-2
[30] = system: HCT-116
[31] = system: OVCAR-3
[32] = system: NCI-H226
[33] = system: UACC-62
[34] = system: HOP-18
[35] = system: NCI-H522
[36] = system: SN12C
[37] = system: DLD-1
[38] = system: SF-539
[39] = system: LOX IMVI
[40] = system: XF498
[41] = system: CCRF-CEM
[42] = system: SF-295
[43] = system: SNB-19
[44] = system: OVCAR-4
[45] = system: HOP-62
[46] = system: SW-620
[47] = system: 786-0
[48] = system: SF-268
[49] = system: DMS-273
[50] = system: M14
[51] = system: SNB-78
[52] = system: UO-31
[53] = system: HL-60
[54] = system: DMS-114
[55] = system: SR
[56] = system: EKVX
[57] = system: HCC 2998
[58] = system: PC-3
[59] = system: T47D
[60] = system: DU-145
[61] = system: MDA-N
[62] = system: BT-549
[63] = system: A498
[64] = system: MCF7
[65] = system: NCI/ADR-RES
[66] = system: Hs-578T
[67] = system: MDA-MB-435
[68] = system: MDA-MB-231

CN(C(=O)c1ccco1)C(=S)N1CCN(c2ccccn2)CC1
GI50 [1]: > 100 µM (inactive)
GI50 [2]: > 100 µM (inactive)
GI50 [3]: > 100 µM (inactive)
GI50 [4]: > 100 µM (inactive)
GI50 [5]: > 100 µM (inactive)
GI50 [6]: > 100 µM (inactive)
GI50 [7]: > 100 µM (inactive)
GI50 [8]: > 100 µM (inactive)
GI50 [9]: > 100 µM (inactive)
GI50 [10]: > 100 µM (inactive)
GI50 [11]: > 100 µM (inactive)
GI50 [12]: > 100 µM (inactive)
GI50 [13]: > 100 µM (inactive)
GI50 [14]: > 100 µM (inactive)
GI50 [15]: > 100 µM (inactive)
GI50 [16]: > 100 µM (inactive)
GI50 [17]: > 100 µM (inactive)
GI50 [18]: > 100 µM
GI50 [19]: > 100 µM (inactive)
GI50 [20]: > 100 µM (inactive)
GI50 [21]: > 100 µM (inactive)
GI50 [22]: > 100 µM (inactive)
GI50 [23]: > 100 µM (inactive)
GI50 [24]: > 100 µM (inactive)
GI50 [25]: > 100 µM (inactive)
GI50 [26]: > 100 µM (inactive)
GI50 [27]: > 100 µM (inactive)
GI50 [28]: > 100 µM (inactive)
GI50 [29]: > 100 µM (inactive)
GI50 [30]: > 100 µM (inactive)
GI50 [31]: > 100 µM (inactive)
GI50 [32]: > 100 µM (inactive)
GI50 [33]: > 100 µM (inactive)
GI50 [34]: > 100 µM (inactive)
GI50 [35]: > 100 µM (inactive)
GI50 [36]: > 100 µM (inactive)
GI50 [37]: > 100 µM (inactive)
GI50 [38]: > 100 µM (inactive)
GI50 [39]: > 100 µM (inactive)
GI50 [40]: > 100 µM (inactive)
GI50 [41]: > 100 µM (inactive)
GI50 [42]: > 100 µM (inactive)
GI50 [43]: > 100 µM (inactive)
GI50 [44]: > 100 µM (inactive)
GI50 [45]: > 100 µM (inactive)
GI50 [46]: > 100 µM (inactive)
GI50 [47]: > 100 µM (inactive)
GI50 [48]: > 100 µM (inactive)
GI50 [49]: > 100 µM (inactive)
GI50 [50]: > 100 µM (inactive)
GI50 [51]: > 100 µM (inactive)
GI50 [52]: > 100 µM (inactive)
GI50 [53]: > 100 µM (inactive)

O=C1OC(CC(=O)c2ccc(F)cc2)C(Cl)=C1Cl (configuration not stated)
GI50 [1]: 16.7 µM (inactive)
GI50 [3]: 21.6 µM (inactive)
GI50 [4]: 40.2 µM (inactive)
GI50 [5]: 33 µM (inactive)
GI50 [6]: 18 µM (inactive)
GI50 [7]: 21.5 µM (inactive)
GI50 [54]: 40.3 µM (inactive)
GI50 [8]: 49 µM (inactive)
GI50 [9]: 16.9 µM (inactive)
GI50 [10]: 39.4 µM (inactive)
GI50 [11]: 40 µM (inactive)
GI50 [13]: 34.4 µM (inactive)
GI50 [14]: 17.2 µM (inactive)
GI50 [15]: 25.5 µM (inactive)
GI50 [16]: 27.2 µM (inactive)
GI50 [55]: 27.2 µM (inactive)
GI50 [17]: 43.3 µM (inactive)
GI50 [18]: 18.4 µM
GI50 [19]: 20 µM (inactive)
GI50 [20]: 24.5 µM (inactive)
GI50 [21]: 19.4 µM (inactive)
GI50 [23]: 29.6 µM (inactive)
GI50 [56]: 48.4 µM (inactive)
GI50 [24]: 73.3 µM (inactive)
GI50 [25]: 18.2 µM (inactive)
GI50 [26]: 20 µM (inactive)
GI50 [27]: 29 µM (inactive)
GI50 [28]: 34.2 µM (inactive)
GI50 [29]: 22.4 µM (inactive)
GI50 [30]: 23.3 µM (inactive)
GI50 [31]: 22.1 µM (inactive)
GI50 [32]: 18.5 µM (inactive)
GI50 [33]: 17 µM (inactive)
GI50 [34]: 17.9 µM (inactive)
GI50 [57]: 16.5 µM (inactive)
GI50 [35]: 18.9 µM (inactive)
GI50 [36]: 19.4 µM (inactive)
GI50 [37]: 21.6 µM (inactive)
GI50 [38]: 19 µM (inactive)
GI50 [39]: 16.8 µM (inactive)
GI50 [40]: 26.7 µM (inactive)
GI50 [41]: 29.4 µM (inactive)
GI50 [42]: > 100 µM (inactive)
GI50 [43]: 22.3 µM (inactive)
GI50 [44]: 19.6 µM (inactive)
GI50 [45]: 32.1 µM (inactive)
GI50 [46]: 23.3 µM (inactive)
GI50 [47]: 18.5 µM (inactive)
GI50 [48]: > 10 µM (inactive)
GI50 [50]: 22.9 µM (inactive)
GI50 [51]: 37.9 µM (inactive)
GI50 [52]: 22.3 µM (inactive)
GI50 [53]: 24.7 µM (inactive)

O=C1NC2(CCCCC2)C(=O)N1CCN(CCCl)CCCl [SPIROMUSTINE]
GI50 [1]: 199 µM (inactive)
GI50 [58]: > 25 µM (inactive)
GI50 [2]: > 194 µM (inactive)
GI50 [59]: 23.9 µM (inactive)
GI50 [4]: > 25 µM (inactive)
GI50 [5]: 214 µM (inactive)
GI50 [7]: 61.5 µM (inactive)
GI50 [54]: 88.7 µM (inactive)
GI50 [8]: 171 µM (inactive)
GI50 [9]: 218 µM (inactive)
GI50 [10]: 41.8 µM (inactive)
GI50 [60]: > 25 µM (inactive)
GI50 [11]: 135 µM (inactive)
GI50 [61]: > 25 µM (inactive)
GI50 [62]: > 25 µM (inactive)
GI50 [12]: 173 µM (inactive)
GI50 [13]: 23.1 µM (inactive)
GI50 [14]: 165 µM (inactive)
GI50 [63]: > 250 µM (inactive)
GI50 [15]: > 241 µM (inactive)
GI50 [16]: > 250 µM (inactive)
GI50 [55]: 19.4 µM (inactive)
GI50 [17]: 97.5 µM (inactive)
GI50 [19]: 182 µM (inactive)
GI50 [20]: > 233 µM (inactive)
GI50 [21]: 129 µM (inactive)
GI50 [64]: 113 µM (inactive)
GI50 [22]: > 230 µM (inactive)
GI50 [23]: 106 µM (inactive)
GI50 [56]: 204 µM (inactive)
GI50 [24]: 228 µM (inactive)
GI50 [25]: > 250 µM (inactive)
GI50 [27]: 34.2 µM (inactive)
GI50 [28]: 134 µM (inactive)
GI50 [29]: > 141 µM (inactive)
GI50 [30]: 190 µM (inactive)
GI50 [32]: > 250 µM (inactive)
GI50 [65]: 136 µM (inactive)
GI50 [33]: 77.6 µM (inactive)
GI50 [34]: 236 µM (inactive)
GI50 [57]: > 230 µM (inactive)
GI50 [35]: 65.5 µM (inactive)
GI50 [36]: 112 µM (inactive)
GI50 [66]: > 25 µM (inactive)
GI50 [37]: 164 µM (inactive)
GI50 [38]: 114 µM (inactive)
GI50 [39]: 104 µM (inactive)
GI50 [40]: 28.8 µM (inactive)
GI50 [67]: > 25 µM (inactive)
GI50 [41]: 45.8 µM (inactive)
GI50 [43]: 187 µM (inactive)
GI50 [44]: > 239 µM (inactive)
GI50 [45]: 107 µM (inactive)
GI50 [46]: 102 µM (inactive)
GI50 [47]: > 25 µM (inactive)
GI50 [68]: > 25 µM (inactive)
GI50 [49]: 71.6 µM (inactive)
GI50 [50]: > 25 µM (inactive)
GI50 [51]: 148 µM (inactive)
GI50 [52]: 218 µM (inactive)
GI50 [53]: 41.9 µM (inactive)
